Measured values taken from ChEMBL document CHEMBL4837239, “Identification of Thieno[3,2-d]pyrimidine Derivatives as Dual Inhibitors of Focal Adhesion Kinase and FMS-like Tyrosine Kinase 3” (J Med Chem, 2021).

Assays:
Focal adhesion kinase 1 = Focal adhesion kinase 1 (Homo sapiens, UniProt Q05397); experiment: Inhibition of recombinant FAK (unknown origin) by radiometric kinase assay
MDA-MB-231 = experiment: Antiproliferative activity against human MDA-MB-231 cells assessed as growth inhibition measured after 72 hrs by CellTiter-Glo assay; format: functional
[1] = Antiproliferative activity against human A375P cells assessed as growth inhibition measured after 72 hrs by CellTiter-Glo assay; format: functional
HCT-116 = experiment: Antiproliferative activity against human HCT-116 cells assessed as growth inhibition measured after 72 hrs by CellTiter-Glo assay; format: functional
BaF3 [2] = experiment: Antiproliferative activity against mouse Ba/F3 cells harbouring FLT3 ITD D835Y mutant assessed as growth inhibition measured after 72 hrs by CellTiter-Glo assay; format: functional; conditions: Mus musculus, BaF3
BaF3 [3] = experiment: Antiproliferative activity against mouse Ba/F3 cells harbouring FLT3 ITD F691L mutant assessed as growth inhibition measured after 72 hrs by CellTiter-Glo assay; format: functional; conditions: Mus musculus, BaF3
BaF3 [4] = experiment: Antiproliferative activity against mouse Ba/F3 cells harbouring FLT3 D835Y mutant assessed as growth inhibition measured after 72 hrs by CellTiter-Glo assay; format: functional; conditions: Mus musculus, BaF3
BaF3 [5] = experiment: Antiproliferative activity against mouse Ba/F3 cells harbouring FLT3 ITD mutant assessed as growth inhibition measured after 72 hrs by CellTiter-Glo assay; format: functional; conditions: Mus musculus, BaF3
[6] = Inhibition of FLT3 D835Y (unknown origin); parameters: species or system Homo sapiens
BaF3 [7] = experiment: Antiproliferative activity against mouse Ba/F3 cells harbouring FLT3 ITD F691I mutant assessed as growth inhibition measured after 72 hrs by CellTiter-Glo assay; format: functional; conditions: Mus musculus, BaF3
BaF3 [8] = experiment: Antiproliferative activity against mouse Ba/F3 cells assessed as growth inhibition measured after 72 hrs by CellTiter-Glo assay; format: functional; conditions: Mus musculus, BaF3
[9] = Metabolic stability in human liver microsomes assessed as compound remaining at 1 uM measured after 1 hr; format: ADME, Microsome; conditions: read-out: Stabilty

Chain of Focal adhesion kinase 1 (Q05397 whole entry): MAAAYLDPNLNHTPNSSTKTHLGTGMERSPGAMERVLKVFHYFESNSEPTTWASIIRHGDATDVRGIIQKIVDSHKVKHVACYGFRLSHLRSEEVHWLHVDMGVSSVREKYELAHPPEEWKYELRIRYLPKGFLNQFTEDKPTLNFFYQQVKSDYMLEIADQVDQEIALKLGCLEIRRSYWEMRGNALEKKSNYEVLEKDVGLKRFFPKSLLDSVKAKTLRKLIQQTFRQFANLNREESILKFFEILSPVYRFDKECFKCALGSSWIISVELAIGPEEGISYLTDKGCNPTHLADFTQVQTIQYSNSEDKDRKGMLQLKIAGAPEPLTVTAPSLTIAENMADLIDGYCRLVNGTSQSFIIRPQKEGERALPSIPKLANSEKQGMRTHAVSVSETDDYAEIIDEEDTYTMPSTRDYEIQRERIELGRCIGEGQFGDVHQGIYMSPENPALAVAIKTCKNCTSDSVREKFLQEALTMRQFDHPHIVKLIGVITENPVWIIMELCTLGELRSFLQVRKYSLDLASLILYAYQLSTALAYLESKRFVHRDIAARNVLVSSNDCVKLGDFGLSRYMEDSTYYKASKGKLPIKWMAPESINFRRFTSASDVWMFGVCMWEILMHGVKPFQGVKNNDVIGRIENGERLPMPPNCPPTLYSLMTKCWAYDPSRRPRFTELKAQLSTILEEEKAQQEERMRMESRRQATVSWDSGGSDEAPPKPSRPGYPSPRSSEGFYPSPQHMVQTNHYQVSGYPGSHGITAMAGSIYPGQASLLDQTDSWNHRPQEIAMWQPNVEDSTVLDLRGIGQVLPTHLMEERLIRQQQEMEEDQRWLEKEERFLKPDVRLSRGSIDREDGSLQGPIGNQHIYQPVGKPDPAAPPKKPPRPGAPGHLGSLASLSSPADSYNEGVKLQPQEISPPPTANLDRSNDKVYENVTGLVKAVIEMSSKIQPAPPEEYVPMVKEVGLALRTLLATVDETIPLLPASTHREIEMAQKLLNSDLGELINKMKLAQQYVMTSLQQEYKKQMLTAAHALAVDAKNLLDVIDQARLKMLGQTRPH

Row | SMILES | IC50 (Focal adhesion kinase 1) | GI50 (MDA-MB-231; Homo sapiens, MDA-MB-231) | GI50 ([1]; Homo sapiens, A375P) | GI50 (HCT-116; Homo sapiens, HCT-116) | remaining at 1 h, 1 µM [9] | also measured
1 | CCN1CCN(c2ccc(Nc3ncc4scc(-c5cccc(C(=O)O)c5)c4n3)cc2)CC1 | 0.059 µM | 4.64 µM | 12.3 µM | 4.35 µM | – | –
2 | CCN1CCN(c2ccc(Nc3ncc4scc(-c5ccccn5)c4n3)cc2)CC1 | 0.012 µM | 0.29 µM | 0.42 µM | 0.27 µM | 54.2% | GI50 (BaF3 [2]): 0.0142 µM; GI50 (BaF3 [3]): 0.055 µM; GI50 (BaF3 [4]): 0.0012 µM; GI50 (BaF3 [5]): 0.0091 µM; IC50 [6]: < 0.0005 µM; GI50 (BaF3 [7]): 0.164 µM; GI50 (BaF3 [8]): 0.206 µM
3 | CNC(=O)c1ccccc1-c1csc2cnc(Nc3cc(OC)c(OC)c(OC)c3)nc12 | 0.055 µM | – | – | – | – | –
4 | COc1cc(Nc2ncc3scc(-c4ccccc4S(C)(=O)=O)c3n2)cc(OC)c1OC | 0.668 µM | – | – | – | – | –
5 | COc1cc(Nc2ncc3scc(-c4cccc(C(=O)O)c4)c3n2)cc(OC)c1OC | 0.049 µM | – | – | – | – | –
6 | CCN1CCN(c2cccc(Nc3ncc4scc(-c5cccc(NS(C)(=O)=O)c5)c4n3)c2)CC1 | 0.013 µM | 1.42 µM | 0.9 µM | 0.42 µM | 100% | –
7 | CS(=O)(=O)Nc1cccc(-c2csc3cnc(NC4CC4)nc23)c1 | 2.35 µM | – | – | – | – | GI50 (MDA-MB-231): 43.5 µM; GI50 [1]: 36.6 µM; GI50 (HCT-116): 43.2 µM
8 | COc1cc(Nc2ncc3scc(-c4ccccc4NS(C)(=O)=O)c3n2)cc(OC)c1OC | 0.078 µM | – | – | – | – | –
9 | CCN1CCN(c2ccc(Nc3ncc4scc(-c5cccnc5)c4n3)cc2)CC1 | 0.031 µM | 0.82 µM | 0.71 µM | 9.13 µM | 68.9% | GI50 (BaF3 [2]): 0.0282 µM; GI50 (BaF3 [3]): 0.14 µM; GI50 (BaF3 [4]): 0.0071 µM; GI50 (BaF3 [5]): 0.02 µM; IC50 [6]: < 0.0005 µM; GI50 (BaF3 [7]): 0.299 µM; GI50 (BaF3 [8]): 0.596 µM
10 | CCc1nc(C(N)=O)c(Nc2ccc(N3CCC(N4CCN(C)CC4)CC3)c(OC)c2)nc1NC1CCOCC1 [GILTERITINIB] | – | – | – | – | – | GI50 (BaF3 [2]): 0.005 µM; GI50 (BaF3 [3]): 0.0828 µM; GI50 (BaF3 [4]): 0.002 µM; GI50 (BaF3 [7]): 0.259 µM
11 | COc1cc(Nc2ncc3scc(-c4cccc(N(C)S(C)(=O)=O)c4)c3n2)cc(OC)c1OC | 0.035 µM | – | – | – | – | –
12 | CS(=O)(=O)Nc1cccc(-c2csc3cnc(Nc4ccc(N5CCCCC5)cc4)nc23)c1 | 0.068 µM | – | – | – | 58% | GI50 (MDA-MB-231): 3.38 µM; GI50 [1]: 2.78 µM; GI50 (HCT-116): 1.49 µM
13 | COc1cc(Nc2ncc3scc(-c4ccccc4N(C)S(C)(=O)=O)c3n2)cc(OC)c1OC | 0.015 µM | – | – | – | – | –
14 | COc1cc(Nc2ncc3scc(-c4cccnc4)c3n2)cc(OC)c1OC | 0.026 µM | – | – | – | – | –
15 | CN(C)c1ccc(Nc2ncc3scc(-c4cccc(NS(C)(=O)=O)c4)c3n2)cc1 | 0.018 µM | – | – | – | 63.8% | GI50 (MDA-MB-231): 3.32 µM; GI50 [1]: 3.48 µM; GI50 (HCT-116): 2.27 µM
16 | CCN1CCN(c2ccc(Nc3ncc4scc(-c5cccc(S(C)(=O)=O)c5)c4n3)cc2)CC1 | 0.018 µM | 0.52 µM | 0.64 µM | 0.51 µM | 55.5% | GI50 (BaF3 [2]): 0.0252 µM; GI50 (BaF3 [3]): 0.17 µM; GI50 (BaF3 [4]): 0.0087 µM; GI50 (BaF3 [5]): 0.0206 µM; IC50 [6]: < 0.0005 µM; GI50 (BaF3 [7]): 0.245 µM; GI50 (BaF3 [8]): 0.427 µM
17 | CC(C)(C)c1cc(NC(=O)Nc2ccc(-c3cn4c(n3)sc3cc(OCCN5CCOCC5)ccc34)cc2)no1 [QUIZARTINIB] | – | – | – | – | – | GI50 (BaF3 [2]): 0.0129 µM; GI50 (BaF3 [3]): 0.0682 µM; GI50 (BaF3 [4]): 0.0022 µM; GI50 (BaF3 [5]): 0.0006 µM; GI50 (BaF3 [7]): > 10 µM; GI50 (BaF3 [8]): > 10 µM
18 | CCN1CCN(c2ccc(Nc3ncc4scc(-c5cccc(S(=O)(=O)NC)c5)c4n3)cc2)CC1 | 0.011 µM | 0.42 µM | 0.4 µM | 0.17 µM | 60.2% | GI50 (BaF3 [2]): 0.0132 µM; GI50 (BaF3 [3]): 0.226 µM; GI50 (BaF3 [4]): 0.0061 µM; GI50 (BaF3 [5]): 0.0347 µM; IC50 [6]: < 0.0005 µM; GI50 (BaF3 [7]): 0.243 µM; GI50 (BaF3 [8]): 0.468 µM
19 | CCN1CCN(c2ccc(Nc3ncc4scc(-c5cccc(C(=O)NC)c5)c4n3)cc2)CC1 | 0.036 µM | 1.26 µM | 1.36 µM | 0.3 µM | 71.1% | –
20 | CCN1CCN(c2ccc(Nc3ncc4scc(-c5cnc6ccccc6c5)c4n3)cc2)CC1 | 0.029 µM | 0.88 µM | 8.05 µM | 0.37 µM | 44.1% | –
21 | CS(=O)(=O)Nc1cccc(-c2csc3cnc(N)nc23)c1 | 4.03 µM | – | – | – | – | GI50 (MDA-MB-231): 27.8 µM; GI50 [1]: 43.3 µM; GI50 (HCT-116): 33.2 µM
22 | CCN1CCN(c2ccc(Nc3ncc4scc(-c5ccccc5[N+](=O)[O-])c4n3)cc2)CC1 | 0.361 µM | 1.01 µM | 1.5 µM | 0.99 µM | – | –
23 | CS(=O)(=O)Nc1cccc(-c2csc3cnc(NC4CCCCC4)nc23)c1 | 0.717 µM | – | – | – | – | GI50 (MDA-MB-231): 7.73 µM; GI50 [1]: 17.8 µM; GI50 (HCT-116): 11.3 µM
24 | CCN1CCN(c2ccc(Nc3ncc4scc(-c5cccc(N(C)S(C)(=O)=O)c5)c4n3)cc2)CC1 | 0.021 µM | 0.45 µM | 0.22 µM | 0.19 µM | 57.2% | GI50 (BaF3 [2]): 0.0143 µM; GI50 (BaF3 [3]): 0.117 µM; GI50 (BaF3 [4]): 0.053 µM; GI50 (BaF3 [5]): 0.0317 µM; IC50 [6]: < 0.0005 µM; GI50 (BaF3 [7]): 0.301 µM; GI50 (BaF3 [8]): 0.695 µM
25 | CCOC(=O)c1cccc(-c2csc3cnc(Nc4ccc(N5CCN(CC)CC5)cc4)nc23)c1 | 0.321 µM | 0.95 µM | 1.65 µM | 1.1 µM | – | –
26 | CCN1CCN(c2ccc(Nc3ncc4scc(-c5ccccc5S(C)(=O)=O)c4n3)cc2)CC1 | 0.194 µM | 8.82 µM | 4.27 µM | 1.88 µM | – | –
27 | CNC(=O)c1ccc(Nc2ncc(C(F)(F)F)c(NCc3nccnc3N(C)S(C)(=O)=O)n2)cc1 [DEFACTINIB] | – | 11.5 µM | 5.94 µM | 9.13 µM | – | –
28 | CS(=O)(=O)Nc1cccc(-c2csc3cnc(Nc4ccccc4)nc23)c1 | 0.03 µM | – | – | – | 49.6% | GI50 (MDA-MB-231): 26.9 µM; GI50 [1]: 7.52 µM; GI50 (HCT-116): 2.57 µM
29 | COc1cc(Nc2ncc3scc(-c4cccc(S(C)(=O)=O)c4)c3n2)cc(OC)c1OC | 0.091 µM | – | – | – | – | –
30 | COc1cc(Nc2ncc3scc(-c4ccccn4)c3n2)cc(OC)c1OC | 0.018 µM | – | – | – | – | –
